One compound from PMC6934184, “Selective DNA-PKcs inhibition extends the therapeutic index of localized radiotherapy and chemotherapy” (The Journal of Clinical Investigation, 2019) can be followed below.

The target of this assay is T1, STK3 (MST2) (Homo sapiens, UniProt Q13188).
T1 construct: purchased Thermo Fisher Scientific (Life Technologies) SelectScreen
The assay is described as follows: SelectScreen Z'LYTE. Format: biochemical. In a few lines:
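Percent values come from Thermo SelectScreen profiling of NU5455, combining activity and binding assays. CSF1R was run in Z'LYTE format at Km app ATP, and CAMK1 in Adapta format with ATP listed at 10.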

T1 sequence (Q13188 whole entry): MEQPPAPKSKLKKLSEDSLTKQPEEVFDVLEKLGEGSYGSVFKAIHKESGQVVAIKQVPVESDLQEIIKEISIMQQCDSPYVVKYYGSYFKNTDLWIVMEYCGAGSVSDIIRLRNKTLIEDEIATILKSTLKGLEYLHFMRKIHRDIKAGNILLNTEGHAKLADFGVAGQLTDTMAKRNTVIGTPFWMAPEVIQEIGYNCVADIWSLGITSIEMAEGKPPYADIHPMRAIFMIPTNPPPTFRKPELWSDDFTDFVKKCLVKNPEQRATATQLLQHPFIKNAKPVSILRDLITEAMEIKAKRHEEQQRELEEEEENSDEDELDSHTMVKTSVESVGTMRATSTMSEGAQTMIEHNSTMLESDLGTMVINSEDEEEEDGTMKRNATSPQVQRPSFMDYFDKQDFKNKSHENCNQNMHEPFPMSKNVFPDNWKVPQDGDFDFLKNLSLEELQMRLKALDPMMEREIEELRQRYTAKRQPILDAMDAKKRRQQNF

By inhibition is commonly meant the drop in the measured response relative to a control, in per cent. On to `CN(C(=O)CN1CCOCC1)c1ccc2sc3c(-c4cccc5c(=O)cc(N6CC7CCC(C6)O7)oc45)cccc3c2c1` [NU5455], for which the inhibition at 1 µM was -10.3%.
